Experimental data taken from publication PMC6526634, “Preparation of bioactive peptides with antidiabetic, antihypertensive, and antioxidant activities and identification of α‐glucosidase inhibitory peptides from soy protein” (Food Science & Nutrition, 2019).
Where a SMILES comes first, the peptide text is derived from it.

Legend:
[1] = Hydroxyl radical scavenging ability; details: Fenton reaction, salicylic acid, 37℃, 30 min, absorbance 510 nm; mean ± SD of three replicates
Procedure: The antioxidant activity of the soy protein peptides was determined by a hydroxyl radical scavenging assay involving in the Fenton reaction, according to Hanasaki (Hanasaki, Ogava, & Fukui, 1994). The samples were prepared into 0.1, 0.5, 2, 5, and 10 mg/ml. Then, 1 ml of 9 µmol/L FeSO4 solution and 1 ml of salicylic acid–ethanol solution (9 µmol/L，50% ethanol solution) were added respectively and mixed well, with the addition of 1 ml of […] H2O2 (0.03%) reaction initiated. The mixture was incubated in a 37℃ water bath for 30 min and then centrifuged at 2,896 g for 5 min to remove the precipitation. The absorbance of the supernatant was measured at 510 nm. The hydroxyl radical clearance rate was calculated as follows:(4) Hydroxyl radical clearance rate%=1-A1-A2/A0×100 where A 1 is the absorbance of the sample supernatant, A 2 is the absorbance of the supernatant in which the salicylic acid–ethanol is replaced by the same amount of ethanol, and A 0 is the absorbance of the supernatant in which the sample is replaced by distilled water. The ascorbic acid was used as a positive control.

[2] = molecular target: T1, α‐glucosidase from Saccharomyces cerevisiae (Saccharomyces cerevisiae, UniProt P53341); experiment: α‐glucosidase inhibitory activity assay; type: biochemical
T1 construct: purchased Sigma-Aldrich
T1 sequence (P53341 whole entry): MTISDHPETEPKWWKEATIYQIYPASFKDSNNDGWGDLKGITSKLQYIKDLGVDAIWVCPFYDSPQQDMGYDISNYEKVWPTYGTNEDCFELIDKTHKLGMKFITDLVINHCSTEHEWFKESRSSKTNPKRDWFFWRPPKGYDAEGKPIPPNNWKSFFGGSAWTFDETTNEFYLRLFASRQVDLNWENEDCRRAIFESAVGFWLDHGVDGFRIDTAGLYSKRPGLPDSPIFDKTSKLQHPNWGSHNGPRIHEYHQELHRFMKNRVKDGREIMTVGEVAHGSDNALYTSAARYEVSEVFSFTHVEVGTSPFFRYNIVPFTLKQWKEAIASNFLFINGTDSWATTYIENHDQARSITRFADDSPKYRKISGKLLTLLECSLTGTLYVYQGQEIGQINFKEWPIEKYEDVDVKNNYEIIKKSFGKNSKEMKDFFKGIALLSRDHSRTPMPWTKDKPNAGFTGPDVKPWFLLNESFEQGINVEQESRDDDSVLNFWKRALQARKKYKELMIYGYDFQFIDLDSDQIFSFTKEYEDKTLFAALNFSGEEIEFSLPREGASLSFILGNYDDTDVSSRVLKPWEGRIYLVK
Procedure: All other chemicals and reagents were of analytical grade and commercially available.
α‐glucosidase inhibitory activity assay was performed according to a method by Kim with slight modifications (Kim, Wang, & Rhee, 2004). The α‐glucosidase inhibitory rate of the hydrolysate was estimated in a 96‐well microplate using a MR‐96A microplate reader (Mindray) by monitoring the amount of 4‐nitrophenol (PNP) released from 4‐nitrophenol‐α‐D‐glucopyranoside (PNPG). A dose (50 μl) of sodium phosphate buffer (pH 6.8, 0.2 M), 50 μL of PNPG (1 mg/ml) dissolved in sodium phosphate buffer, and 50 μl of the samples dissolved in the same buffer were mixed adequately in a 96‐well microplate. Then, it was incubated for 5 min at 37°C, and the reaction started immediately followed by the addition of 10 μl of α‐glucosidase solution (0.2 U/ml of the buffer). The plate was incubated for another 30 min at 37°C, and then, the reaction was terminated by the addition of 80 μl of 1 M Na2CO3 solution. The absorbance of released product PNP was measured immediately at 405 nm. […] The percentage of α‐glucosidase inhibition was calculated as follows:(1) α-glucosidase inhibition rate%=ODA-ODS/ODA-ODB×100 where ODA is the absorbance of the supernatant in which the sample is replaced by the same amount of buffer; ODS is the absorbance of the supernatant with the tested sample; and ODBis the absorbance of the supernatant in which the tested sample and α‐glucosidase solution are replaced by the same amount of buffer.

[3] = Ferric reducing antioxidant power (FRAP) activity; details: 1, 2, 5, 10, and 20 mg/ml, potassium ferricyanide, pH 6.6, 50℃, 30 min, absorbance 700 nm
Procedure: The FRAP assay was used to determine the antioxidative of the samples using the method described by Tsai et al with some modifications (Tsai, Huang, & Mau, 2006) and to configure the sample solution with the concentration of 1, 2, 5, 10, and 20 mg/ml. Using 1 ml of sample mixed with 2.5 ml of 0.2 mol/L sodium phosphate buffer (pH 6.6) and 2.5 ml of 1% potassium ferricyanide solution incubated at 50℃ for 30 min, add 2.5 ml of 10% trichloroacetic acid solution, centrifuged at 1,042 g for 10 min, and then collected 2.5 ml of supernatant mixed with 2.5 ml of distilled water and 0.5 ml of 0.1% ferric chloride solution. The absorbance at 700 nm was measured after 10 min by a 754 PC spectrophotometer (Shanghai, China). FeSO4 aqueous solution was used as positive control.

## O=C1O[C@H]([C@@H](O)CO)C(O)=C1O [vitamin C, ascorbic acid]
[1]
  hydroxyl radical scavenging ability IC50: 540 ± 40 µg/mL

## MLPVMR [hexapeptide identified from soy protein AP hydrolysate fraction H1‐2, then synthesized]
[2]; synthetic peptide or DEAE‐52 fraction, test concentration not given
  α‐glucosidase inhibition, result in words: did not show inhibitory activity

## CC(C)C[C@H](NC(=O)[C@H](CCCNC(=N)N)NC(=O)[C@H](CC(C)C)NC(=O)[C@H](Cc1c[nH]c2ccccc12)NC(=O)[C@@H](N)CO)C(=O)O [SWLRL] (H-SWLRL-OH)
[2]
  IC50: 182.1 ± 0.74 µM

## CC(C)C[C@H](NC(=O)[C@H](CCCNC(=N)N)NC(=O)[C@H](CC(C)C)NC(=O)[C@@H](N)Cc1c[nH]c2ccccc12)C(=O)O [WLRL] (H-WLRL-OH)
[2]
  IC50: 165.3 ± 0.74 µM

## CC(C)C[C@H](NC(=O)[C@@H](NC(=O)[C@@H]1CCCN1C(=O)[C@H](CC(C)C)NC(=O)[C@@H]1CCCN1C(=O)[C@H](CC(C)C)NC(=O)[C@@H](N)CC(C)C)C(C)C)C(=O)N[C@@H](CCCCN)C(=O)O (H-LLPLPVLK-OH)
[2]
  IC50: 237.4 ± 0.52 µM

## ferrous sulfate [FeSO4]
[3]
  iron ion reduction ability (FRAP): linearly related to concentration
[3]; listed as ferrous sulfate
  iron ion reduction ability (FRAP): stronger reduction ability
